From patent US12077503B2, “Substituted cyclic amides and their use as herbicides” (FMC CORPORATION, priority 2015, dated 2024)

Legend:
Assay type in all cases: in vivo
corn (Zea mays) [1] = experiment: Test G Post-Emergence Protocol; settings: Zea mays, post-emergence, 312 h
Method in brief: (§1)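 Pot-grown seedlings, 8 days old, raised in a glasshouse at 24/16 °C day/night with 14 h light and 65% humidity, were sprayed post-emergence with test compound in acetone/water (50:50) plus 0.5% Tween 20 at 15.625, 62.5 or 250 g/ha. Damage was scored visually 13 days later on a 0–100 scale (100 = total damage).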

[2] = test system: velvetleaf (Abutilon theophrasti); experiment: Test G Post-Emergence Protocol; settings: Abutilon theophrasti, post-emergence, 312 h
Method in brief: as §1

[3] = test system: barnyardgrass (Echinochloa crus-galli); experiment: Test G Post-Emergence Protocol; settings: Echinochloa crus-galli, post-emergence, 312 h
Method in brief: as §1

[4] = test system: giant foxtail (Setaria faberi); experiment: Test G Post-Emergence Protocol; settings: Setaria faberi, post-emergence, 312 h
Method in brief: as §1

[5] = test system: ivy-leaved morning glory (Ipomoea hederacea); experiment: Test G Post-Emergence Protocol; settings: Ipomoea, post-emergence, 312 h
Method in brief: as §1

[6] = test system: redroot pigweed (Amaranthus retroflexus); experiment: Test G Post-Emergence Protocol; settings: Amaranthus retroflexus, post-emergence, 312 h
Method in brief: as §1

corn (Zea mays) [7] = experiment: Test G Pre-Emergence Protocol; settings: Zea mays, pre-emergence, 312 h, evaluated after 13 days
Method in brief: (§2)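 Herbicidal effect was rated 13 days post-application on a scale where 100 equals total damage. Spraying took place the day after sowing, using 15.625, 62.5 or 250 g/ha of compound in a 50:50 acetone/water solution with 0.5% Tween 20.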

[8] = test system: velvetleaf (Abutilon theophrasti); experiment: Test G Pre-Emergence Protocol; settings: Abutilon theophrasti, pre-emergence, 312 h, evaluated after 13 days
Method in brief: as §2

[9] = test system: barnyardgrass (Echinochloa crus-galli); experiment: Test G Pre-Emergence Protocol; settings: Echinochloa crus-galli, pre-emergence, 312 h, evaluated after 13 days
Method in brief: as §2

[10] = test system: giant foxtail (Setaria faberi); experiment: Test G Pre-Emergence Protocol; settings: Setaria faberi, pre-emergence, 312 h, evaluated after 13 days
Method in brief: as §2

[11] = test system: ivy-leaved morning glory (Ipomoea hederacea); experiment: Test G Pre-Emergence Protocol; settings: Ipomoea, pre-emergence, 312 h, evaluated after 13 days
Method in brief: as §2

[12] = test system: redroot pigweed (Amaranthus retroflexus); experiment: Test G Pre-Emergence Protocol; settings: Amaranthus retroflexus, pre-emergence, 312 h, evaluated after 13 days
Method in brief: as §2

CN1C[C@H](c2ccc(C(F)(F)F)cc2)[C@@H](C(=O)Nc2ccccc2C(C)(C)C)C1=O (racemic) [Compound 1445]
0%: plant injury at 15.625 g/ha (corn (Zea mays) [1]; 15.625 g ai/ha, evaluated after 13 days (100=total damage to plant; 0=no damage to plant), read-out: Corn damage rating) | plant injury at 62.5 g/ha (corn (Zea mays) [1]; 62.5 g ai/ha, evaluated after 13 days, read-out: Corn damage rating (100=total damage to plant; 0=no damage to plant)) | plant injury at 250 g/ha (corn (Zea mays) [1]; 250 g ai/ha, evaluated after 13 days, read-out: damage to plant, Corn (100=total damage to plant; 0=no damage to plant)) | pest or weed control at 15.625 g/ha ([2]; 15.625 g ai/ha, evaluated after 13 days (100=total damage to plant; 0=no damage to plant), read-out: Velvetleaf damage rating) | pest or weed control at 62.5 g/ha ([2]; 62.5 g ai/ha, evaluated after 13 days, read-out: Velvetleaf damage rating (100=total damage to plant; 0=no damage to plant)) | pest or weed control at 250 g/ha ([2]; 250 g ai/ha, evaluated after 13 days, read-out: damage to plant, Velvetleaf (100=total damage to plant; 0=no damage to plant)) | pest or weed control at 15.625 g/ha ([3]; 15.625 g ai/ha, evaluated after 13 days (100=total damage to plant; 0=no damage to plant), read-out: Barnyardgrass damage rating) | pest or weed control at 62.5 g/ha ([3]; 62.5 g ai/ha, evaluated after 13 days, read-out: Barnyardgrass damage rating (100=total damage to plant; 0=no damage to plant)) | pest or weed control at 250 g/ha ([3]; 250 g ai/ha, evaluated after 13 days, read-out: damage to plant, Barnyardgrass (100=total damage to plant; 0=no damage to plant)) | pest or weed control at 15.625 g/ha ([4]; 15.625 g ai/ha, evaluated after 13 days (100=total damage to plant; 0=no damage to plant), read-out: Foxtail, Giant damage rating) | pest or weed control at 62.5 g/ha ([4]; 62.5 g ai/ha, evaluated after 13 days, read-out: Foxtail, Giant damage rating (100=total damage to plant; 0=no damage to plant)) | pest or weed control at 250 g/ha ([4]; 250 g ai/ha, evaluated after 13 days, read-out: damage to plant, Foxtail, Giant (100=total damage to plant; 0=no damage to plant)) | pest or weed control at 15.625 g/ha ([5]; 15.625 g ai/ha, evaluated after 13 days (100=total damage to plant; 0=no damage to plant), read-out: Morningglory, Ivy-leaved damage rating) | pest or weed control at 62.5 g/ha ([5]; 62.5 g ai/ha, evaluated after 13 days, read-out: Morningglory, Ivy-leaved damage rating (100=total damage to plant; 0=no damage to plant)) | pest or weed control at 250 g/ha ([5]; 250 g ai/ha, evaluated after 13 days, read-out: damage to plant, Morningglory, Ivy-leaved (100=total damage to plant; 0=no damage to plant)) | pest or weed control at 15.625 g/ha ([6]; 15.625 g ai/ha, evaluated after 13 days (100=total damage to plant; 0=no damage to plant), read-out: Pigweed, Redroot damage rating) | pest or weed control at 62.5 g/ha ([6]; 62.5 g ai/ha, evaluated after 13 days, read-out: Pigweed, Redroot damage rating (100=total damage to plant; 0=no damage to plant)) | pest or weed control at 250 g/ha ([6]; 250 g ai/ha, evaluated after 13 days, read-out: damage to plant, Pigweed, Redroot (100=total damage to plant; 0=no damage to plant)) | plant injury at 15.625 g/ha (corn (Zea mays) [7]; 15.625 g ai/ha, read-out: Corn damage rating (100=total damage to plant; 0=no damage to plant)) | plant injury at 62.5 g/ha (corn (Zea mays) [7]; 62.5 g ai/ha, 100=total damage to plant, 0=no damage to plant, read-out: plant damage rating, Corn) | plant injury at 250 g/ha (corn (Zea mays) [7]; 250 g ai/ha, read-out: Corn damage rating (100=total damage to plant; 0=no damage to plant)) | pest or weed control at 15.625 g/ha ([8]; 15.625 g ai/ha, read-out: Velvetleaf damage rating (100=total damage to plant; 0=no damage to plant)) | pest or weed control at 62.5 g/ha ([8]; 62.5 g ai/ha, 100=total damage to plant, 0=no damage to plant, read-out: plant damage rating, Velvetleaf) | pest or weed control at 250 g/ha ([8]; 250 g ai/ha, read-out: Velvetleaf damage rating (100=total damage to plant; 0=no damage to plant)) | pest or weed control at 15.625 g/ha ([9]; 15.625 g ai/ha, read-out: Barnyard grass damage rating (100=total damage to plant; 0=no damage to plant)) | pest or weed control at 62.5 g/ha ([9]; 62.5 g ai/ha, 100=total damage to plant, 0=no damage to plant, read-out: plant damage rating, Barnyardgrass) | pest or weed control at 250 g/ha ([9]; 250 g ai/ha, read-out: Barnyardgrass damage rating (100=total damage to plant; 0=no damage to plant)) | pest or weed control at 15.625 g/ha ([10]; 15.625 g ai/ha, read-out: Foxtail, Giant damage rating (100=total damage to plant; 0=no damage to plant)) | pest or weed control at 62.5 g/ha ([10]; 62.5 g ai/ha, 100=total damage to plant, 0=no damage to plant, read-out: plant damage rating, Foxtail, Giant) | pest or weed control at 250 g/ha ([10]; 250 g ai/ha, read-out: Foxtail, Giant damage rating (100=total damage to plant; 0=no damage to plant)) | pest or weed control at 15.625 g/ha ([11]; 15.625 g ai/ha, read-out: Morning-glory, Ivy-leaved damage rating (100=total damage to plant; 0=no damage to plant)) | pest or weed control at 62.5 g/ha ([11]; 62.5 g ai/ha, 100=total damage to plant, 0=no damage to plant, read-out: plant damage rating, Morningglory, Ivy-leaved) | pest or weed control at 250 g/ha ([11]; 250 g ai/ha, read-out: Morningglory, Ivy-leaved damage rating (100=total damage to plant; 0=no damage to plant)) | pest or weed control at 15.625 g/ha ([12]; 15.625 g ai/ha, read-out: Pigweed, Redroot damage rating (100=total damage to plant; 0=no damage to plant)) | pest or weed control at 62.5 g/ha ([12]; 62.5 g ai/ha, 100=total damage to plant, 0=no damage to plant, read-out: plant damage rating, Pigweed, Redroot) | pest or weed control at 250 g/ha ([12]; 250 g ai/ha, read-out: Pigweed, Redroot damage rating (100=total damage to plant; 0=no damage to plant))
